Experiments:
[1] = tested on: Korean subjects with hypertension associated with dyslipidemia; assay: Phase 3 clinical study, variability of SBP and DBP reduction; assay type: in vivo, human (Korean subjects); conditions: once daily up to 8 weeks; olmesartan medoxomil 40 mg
Method: Hypertension therapy effectiveness was evaluated by evaluating the variability of systolic blood pressure (SBP) and diastolic blood pressure (DBP) reduction following dosing with olmesartan single agent (OM) or a fixed dosage composition comprising olmesartan and rosuvastatin (OM/RC FDC). […] The study was a multi-site, randomized, double-blind, placebo-controlled, factorial, 4 arm, 8 week Phase 3 clinical study of Korean subjects with hypertension associated with dyslipidemia aged between 20 and 80 years. Following a 4-week therapeutic lifestyle-change period that included a washout period, eligible patients were randomized in a 2:1:1:1 ratio to receive either OM/RC FDC, olmesartan medoxomil 40 mg, rosuvastatin calcium 20 mg, or placebo, once daily, for up to 8 weeks. A total of 183 subjects were randomized (72 subjects in OM/RC FDC, 39 subjects in olmesartan medoxomil 40 mg, 38 subjects in rosuvastatin calcium 20 mg, and 34 subjects in placebo). Among the 183 randomized subjects, 181 subjects took the investigational drug (ST-101/OM/RC FDC), 162 subjects completed the study, and 21 of […] subjects were discontinued from the study. The SBP and DBP reduction was highly variable. FIG. 2 compares the variability of systolic blood pressure (SBP) reduction after dosing with olmesartan single agent (olmesartan) or olmesartan/rosuvastatin fixed dose combination (OM/RC FDC, ST-101). […]

[2] = design: species or system healthy subjects (Asian and non-Asian); conditions: in vivo
Source text: PubMed database was searched to identify relevant scientific and review articles from May 2001 to June 2015 using the search term olmesartan PK. Reference lists of included articles were reviewed to locate additional references of interest. PK studies with single dose AUC of olmesartan medoxomil in healthy subjects were selected. Olmesartan medoxomil AUC from co-administration of olmesartan medoxomil with other drugs or FDC containing olmesartan medoxomil were also included if there was no known drug-drug interaction (DDI). The pharmacokinetic datasets for olmesartan were obtained from published clinical studies across Asian and non-Asian subjects with a dose range from 10 to 160 mg. More than 80% of the studies reported AUC in arithmetic mean. […] PK and demographic data from a total of 895 healthy subjects from 13 clinical studies were included in the final analysis Schwocho L R and Masonson H N. Pharmacokinetics of CS866, a new angiotensin II receptor block, in healthy subjects. J Clin Pharmacol 2001; 41:515-27; von Bergmann K, Laeis P, Pilchler K, Sudhop T, Schwocho L R, Gonzalez L. Olmesartan medoxomil: influence of age, renal and hepatic function on the PK of olmesartan medoxomil. […]

[3] = tested on: patients with hypertension; assay: Dose response of blood pressure reduction, analysis of 21 published clinical studies; assay type: in vivo, human; conditions: olmesartan medoxomil 5 to 80 mg monotherapy, 21 clinical studies
Method: PubMed database was searched to identify relevant scientific and review articles from June 2001 to June 2015 using the search terms olmesartan efficacy, response, effect/clinical trial. Reference lists of included articles were reviewed to locate additional references of interest. PD studies with olmesartan medoxomil dose range from 5 to 80 mg monotherapy were selected. PD response and demographic data from a total of 10,770 patients with hypertension in 21 clinical studies were included in the analysis (Oparil S, Williams D, Chrysant S G, Marbury T C, Neutel J. (2001). Comparative efficacy of olmesartan, losartan, valsartan, and irbesartan in the control of essential hypertension. J Clin Hypertens (Greenwich) 2001; 3(5):283-318; Püchler K, Laeis P, Stumpe K O. Blood pressure response, but not adverse event incidence, correlates with dose of angiotensin II antagonist. J Hypertens Suppl 2001 June; 19(1):S41-8; Neutel J M, Elliott W J, Izzo J L, Chen C L, Masonson H N. Antihypertensive efficacy of olmesartan medoxomil, a new angiotensin II receptor antagonist, as assessed by ambulatory blood pressure measurements. […] J Hum Hypertens 2002; 16(Suppl 2):S24-8; Brunner H R, Stumpe K O, Januszewicz A. Antihypertensive efficacy of olmesartan medoxomil and candesartan cilexetil assessed by 24-hour ambulatory blood pressure monitoring in patients with essential hypertension. […]

[4] = design: species or system Korean healthy males; conditions: in vivo
Method: Drug exposure as AUC was studied among Korean healthy males aged between 20 and 50 years in two clinical studies: (1) a randomized, open-label, multiple-dose, cross-over study of 36 subjects divided into 6 cohorts and treated over 3 periods (subjects were administered either 1 tablet of 40 mg olmesartan medoxomil, 1 tablet of 20 mg rosuvastatin calcium, or a 1 tablet each of both agents (fixed dosage composition, single dose form) orally every 24 hours for 7 days, with an 8-day washout period separating the individual treatment courses) and (2) a randomized, open-label, single-dose, cross-over study of 58 subjects divided into 2 cohorts and treated over 2 periods (Son H, Roh H, Lee D, Chang H, Kim J, Yun C, et al. Pharmacokinetics of rosuvastatin/olmesartan fixed-dose combination: a single-dose, randomized, open-label, 2-period crossover study in healthy Korean subjects. Clin Ther 2013; 35:915-22) (one tablet of ST-101, also known as olmesartan/rosuvastatin FDC, tablet of 40 mg olmesartan medoxomil/20 mg rosuvastatin calcium was administered once orally as the test drug, or 1 tablet each of 40 mg olmesartan medoxomil and 20 mg rosuvastatin calcium was co-administered once orally as the comparator; eligible subjects were randomly assigned to 2 groups (test arm vs comparator arm) in a 1:1 ratio; each subject received a single dose of the FDC or the comparator orally in a fasted state, with a 7-day washout period between the administrations.
A total of 34 volunteers in study 1 and 54 volunteers in study 2 were evaluated for olmesartan pharmacokinetic (PK) analysis. For PK analyses, blood samples were collected at 0 (pre-dose), 0.5, 2, 2.5, 3, 4, 5, 6, 7, 8, 10, 12, 16, 24, 48 hour after dosing of olmesartan either as FDC or as single agent.
FIG. 1 compares individual values of olmesartan AUC when dosed as either olmesartan single agent (OM) or olmesartan/rosuvastatin (OM/RC) fixed dose composition (FDC). […] The coefficient of variations were 29.95% and 24.42% for olmesartan single agent and OM/RC FDC, respectively. The tabulated summary of the data including Gaussian tests are shown below in Table 1.
FIG. 6 illustrates the linear correlation between the first and second pharmacokinetic determinations (AUC) for olmesartan. The linear regression is described by the following equation: Y=0.9782*X. The p value of significant deviation from 0 is less than 0.0001.

slope of linear regression between first and second AUC determinations (Y=slope*X) [4]: 0.9782
coefficient of variation of olmesartan AUC ([4]; po, 40 mg): 29.95%
olmesartan AUC, 25% Percentile ([4]; po, 40 mg): 6317
olmesartan AUC, 75% Percentile ([4]; po, 40 mg): 8916
olmesartan AUC, Maximum ([4]; po, 40 mg): 17026
olmesartan AUC, Mean ([4]; po, 40 mg): 7908
olmesartan AUC, Median ([4]; po, 40 mg): 7450 ng·h/mL
olmesartan AUC, Minimum ([4]; po, 40 mg): 3899
Structure (SMILES): CCCc1nc(C(C)(C)O)c(C(=O)OCc2oc(=O)oc2C)n1Cc1ccc(-c2ccccc2-c2nnn[nH]2)cc1 [OM Single Agent, olmesartan medoxomil]
coefficient of variation for DBP reduction [1]: 79.25%
coefficient of variation for SBP reduction [1]: 78.24%
AUC among Asian subjects versus non-Asian subjects [2]: comparable to AUC in non-Asian subjects at the same dose level
dependence of AUC on dose [2]: linear dose-dependent increase in AUC from 10 to 160 mg
relationship between DBP reduction and dose (regression analysis) [3]: very shallow insignificant relationship
correlation between SBP reduction and dose (regression analysis) ([3]; p=0.04): only weak correlation

From patent US20160199354A1, “METHODS FOR OLMESARTAN DOSING BY AUC” (Autotelic LLC, priority 2015, published 2016)
